In patent publication US12491170B2, “Stable treprostinil prodrugs” (United Therapeutics Corporation, priority 2020, dated 2025):

Key:
[1] = Stability in liver microsomes, dog; conditions: for AUC Mono (treprostinil formed) / CLint / Half-life: dog
[2] = Stability in cryopreserved hepatocytes, rat; conditions: for Mono AUC (treprostinil formed) / AUC / CLint / Half-life: rat; for CLint, calculated (in parentheses) / Half-life, calculated (in parentheses) / CLint / Half-life: hepatocytes
[3] = biological target: prostaglandin I2 (PGI2) receptor (IP) (Homo sapiens, UniProt P43119); assay: IP receptor cAMP agonist assay (CHO-K1 cells); assay type: cell-based; design: key to EC50 Fold Different from Treprostinil, IP Receptor: NC = too inactive to realistically calculate; conditions: for IP Relative to Tre: Table 22, relative to treprostinil EC50 values, * partial agonists or ambiguous dose-response curves; for Activity at the IP receptor compared to treprostinil: summary of findings
Protocol: Cyclic AMP assay kit: Multiscreen™ TR-FRET cAMP 1.0 No Wash Assay Kit (Multispan, Inc.)
Cells were thawed from frozen cells and resuspended in assay buffer at desired concentrations. cAMP or Calcium assays were performed according to the manufacturer's protocol using Multiscreen™ TR-FRET cAMP 1.0 No Wash Assay Kit or Multiscreen™ Calcium 1.0 No Wash Kit.
Gas Cyclic AMP (cAMP) Assay: In agonist mode testing, cells were seeded in a 384-well plate at an appropriate density and then were treated with compounds and incubated at 37° C. for 20 minutes. The reaction was terminated by […] trFluor™ Eu-labeled cAMP and trFluor™ 650-labeled anti-cAMP antibody in lysis buffer. […] All testing wells contained 0.1% DMSO in the final concentrations.
Data in graphs are represented in Mean±SD. Dose-dependent responses were fitted with sigmoidal dose-response curves allowing variable slopes using GraphPad Prism version 6 (Graphpad Prism).
These studies used cell lines overexpressing either human IP, EP2 or DP1, or EP1 receptors, and following incubation with varying concentrations of compounds, cAMP levels were measured using Fluorescence Resonance Energy Transfer (FRET).

[4] = Stability in human subcutaneous skin homogenate; conditions: for Mono AUC (treprostinil formed) / AUC: human
[5] = Stability in cryopreserved hepatocytes, dog; conditions: for Mono AUC (treprostinil formed) / AUC / CLint / Half-life: dog

prostaglandin I2 (PGI2) receptor (IP), sequence (P43119 whole entry): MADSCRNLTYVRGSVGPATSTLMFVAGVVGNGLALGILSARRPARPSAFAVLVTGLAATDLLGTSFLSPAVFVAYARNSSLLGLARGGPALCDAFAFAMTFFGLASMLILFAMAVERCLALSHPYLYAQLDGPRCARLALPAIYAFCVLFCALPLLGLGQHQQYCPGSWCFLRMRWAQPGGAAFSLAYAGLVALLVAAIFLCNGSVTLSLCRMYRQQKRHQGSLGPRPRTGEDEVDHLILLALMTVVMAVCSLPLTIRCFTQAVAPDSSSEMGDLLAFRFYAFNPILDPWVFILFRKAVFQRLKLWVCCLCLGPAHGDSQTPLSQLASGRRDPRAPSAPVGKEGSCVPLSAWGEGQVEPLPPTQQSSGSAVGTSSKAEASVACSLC

## CCCCCC(CCC1C(O)CC2Cc3c(cccc3OCC(=O)O)CC21)OC(=O)CC (stereo not drawn) [Prodrug LV]
[1]
  Treprostinil Concentration 0 min: 0.971 µM
  Treprostinil Concentration 15 min: 0.961 µM
  Treprostinil Concentration 30 min: 0.934 µM
  Treprostinil Concentration 60 min: 0.915 µM
  Treprostinil Concentration 120 min: 0.743 µM
  AUC Mono (treprostinil formed): 53.3 µmol·min/L
[2]
  Treprostinil Concentration 0 min: 0.0159 µM
  Treprostinil Concentration 120 min: 0.391 µM
  Mono AUC (treprostinil formed): 49.3 µmol·min/L
[3]
  IP Relative to Tre: 54x
[4]
  Treprostinil Concentration 0 min: 0.0045 µM
  Treprostinil Concentration 30 min: 0.545 µM
  Mono AUC (treprostinil formed): 78.38 µmol·min/L
[5]
  Treprostinil Concentration 15 min: 0.781 µM
  Treprostinil Concentration 120 min: 0.53 µM
  Mono AUC (treprostinil formed): 71.2 µmol·min/L

## CCCCCC(CCC1C(OC(=O)CC)CC2Cc3c(cccc3OCC(=O)O)CC21)OC(=O)CC (stereo not drawn) [Prodrug LXX, treprostinil dipropionate]
[1]
  Trep Concentration 0 min: 1.24 µM
  Trep Concentration 10 min: 1.26 µM
  Trep Concentration 20 min: 1.24 µM
  Trep Concentration 30 min: 1.23 µM
  Trep Concentration 60 min: 1.07 µM
  Treprostinil Concentration 0 min: 1.24 µM
  Treprostinil Concentration 15 min: 1.26 µM
  Treprostinil Concentration 30 min: 1.24 µM
  Treprostinil Concentration 60 min: 1.23 µM
  Treprostinil Concentration 120 min: 1.07 µM
  AUC Mono (treprostinil formed): 71.9 µmol·min/L
[1]; microsomes
  CLint: >0.139 mL/min/mg protein
  Half-life: <10 min
[2]
  Trep Concentration (μM) 0 min: 0 µM
  Trep Concentration (μM) 15 min: 0.606 µM
  Trep Concentration (μM) 30 min: 0.579 µM
  Trep Concentration (μM) 60 min: 0.484 µM
  Trep Concentration (μM) 120 min: 0.405 µM
  Treprostinil Concentration 0 min: 0 µM
  Treprostinil Concentration 120 min: 0.405 µM
  CLint, calculated (in parentheses): 0.116 mL/min/mg protein
  Half-life, calculated (in parentheses): 3.97 min
  AUC: 56.05 µmol·min/L
  Mono AUC (treprostinil formed): 56.1 µmol·min/L
  CLint: > 0.0308 mL/min/mg protein
  Half-life: < 15 min
[3]; Table 18, * partial agonists or odd dose-response curves
  EC50 Fold Different from Treprostinil, IP Receptor: NC
[3]
  Activity at the IP receptor compared to treprostinil: inactive
[4]
  Trep Concentration 0 min: 0 µM
  Trep Concentration 30 min: 0.0179 µM
  Trep Concentration 60 min: 0.0411 µM
  Trep Concentration 120 min: 0.0972 µM
  Treprostinil Concentration 0 min: 0 µM
  Treprostinil Concentration 30 min: 0.0179 µM
  AUC: 5.303 µmol·min/L
  Mono AUC (treprostinil formed): 5.303 µmol·min/L
[5]
  Trep Concentration (μM) 0 min: 0.0959 µM
  Trep Concentration (μM) 30 min: 0.597 µM
  Trep Concentration (μM) 60 min: 0.511 µM
  Trep Concentration (μM) 120 min: 0.445 µM
  Treprostinil Concentration 15 min: 0.736 µM
  Treprostinil Concentration 120 min: 0.445 µM
  AUC: 61.54 µmol·min/L
  Mono AUC (treprostinil formed): 61.5 µmol·min/L
[5]; hepatocytes
  CLint: >0.0308 mL/min/mg protein
  Half-life: <15 min

## CCCCCC(CCC1C(OC(=O)OC)CC2Cc3c(cccc3OCC(=O)O)CC21)OC(=O)OC (stereo not drawn) [Prodrug LXXI, treprostinil dicarbonate]
[1]
  AUC Mono (treprostinil formed): 56.2 µmol·min/L
[1]; microsomes
  CLint: > 0.139 mL/min/mg protein
  Half-life: < 10 min
  CLint, calculated (in parentheses): 0.454 mL/min/mg protein
  Half-life, calculated (in parentheses): 3.05 min
[2]
  CLint, calculated (in parentheses): 0.295 mL/min/mg protein
  Half-life, calculated (in parentheses): 1.56 min
  AUC: 39.77 µmol·min/L
  Mono AUC (treprostinil formed): 39.8 µmol·min/L
  CLint: > 0.0308 mL/min/mg protein
  Half-life: < 15 min
[3]
  Activity at the IP receptor compared to treprostinil: inactive
[4]
  AUC: 0.3108 µmol·min/L
  Mono AUC (treprostinil formed): 0.3108 µmol·min/L
[5]
  AUC: 41.47 µmol·min/L
  Mono AUC (treprostinil formed): 41.5 µmol·min/L
[5]; hepatocytes
  CLint: > 0.0308 mL/min/mg protein
  Half-life: < 15 min
  CLint, calculated (in parentheses): 0.187 mL/min/mg protein
  Half-life, calculated (in parentheses): 2.47 min

## CCCCCC(CCC1C(O)CC2Cc3c(cccc3OCC(=O)O)CC21)OP(=O)(O)O (stereo not drawn) [Prodrug VI]
[1]
  Treprostinil Concentration 0 min: 0.21 µM
  Treprostinil Concentration 15 min: 0.32 µM
  Treprostinil Concentration 30 min: 0.43 µM
  Treprostinil Concentration 60 min: 0.48 µM
  Treprostinil Concentration 120 min: 0.75 µM
  AUC Mono (treprostinil formed): 29.4 µmol·min/L
[2]
  Treprostinil Concentration 0 min: 0.128 µM
  Treprostinil Concentration 120 min: 0.53 µM
  Mono AUC (treprostinil formed): 66.9 µmol·min/L
[3]
  IP Relative to Tre: 5x
[3]; listed as Prodrug VI repeat
  IP Relative to Tre: 1.5x
[4]
  Treprostinil Concentration 0 min: 0 µM
  Treprostinil Concentration 30 min: 0.6 µM
  Mono AUC (treprostinil formed): 91.95 µmol·min/L
[5]
  Treprostinil Concentration 15 min: 0.581 µM
  Treprostinil Concentration 120 min: 0.548 µM
  Mono AUC (treprostinil formed): 62.9 µmol·min/L

## CCCCCC(CCC1C(O)CC2Cc3c(cccc3OCC(=O)O)CC21)OC(C)=O (stereo not drawn) [Prodrug XLIII]
[1]
  Treprostinil Concentration 0 min: 0.964 µM
  Treprostinil Concentration 15 min: 0.917 µM
  Treprostinil Concentration 30 min: 0.899 µM
  Treprostinil Concentration 60 min: 0.932 µM
  Treprostinil Concentration 120 min: 0.873 µM
  AUC Mono (treprostinil formed): 54.7 µmol·min/L
[2]
  Treprostinil Concentration 0 min: 0.00292 µM
  Treprostinil Concentration 120 min: 0.503 µM
  Mono AUC (treprostinil formed): 41.4 µmol·min/L
[3]
  IP Relative to Tre: 632x
[4]
  Treprostinil Concentration 0 min: 0.0034 µM
  Treprostinil Concentration 30 min: 0.382 µM
  Treprostinil Concentration 60 min: 0.583 µM
  Treprostinil Concentration 120 min: 0.839 µM
  Mono AUC (treprostinil formed): 62.92 µmol·min/L
[5]
  Treprostinil Concentration 15 min: 0.628 µM
  Treprostinil Concentration 120 min: 0.4 µM
  Mono AUC (treprostinil formed): 54.0 µmol·min/L
